“Also recorded” adds a separate entry of the source.
Key:
[1] = test system: Fbn1^C1039G/+ mice (Marfan mice); assay: Aortic root growth in Marfan mice by in vivo echocardiography; conditions: 500 μg/kg/day subcutaneous daily for 60 days, compared to Marfan mice treated with placebo, FIG. 1
Source text: (§1) In this Example, a total of 20 mice were used, with 8 mice being wild-type and 12 being Fbn1^C1039G+ mice, also referred to as “Marfan mice”, that are each […] for a fibrillin-1 (Fbn1) allele encoding a cysteine substitution, Cys1039Gly (C1039G), in an epidermal growth factor-like domain of Fbn1 (Fbn1^C1039G/+).
The Fbn1C1039G mice are a well-accepted model of Marfan Syndrome and the Fbn1 mutation is the most common class of mutation causing Marfan Syndrome. Typically, the aortic root in Fbn1C1039G mice undergoes progressive dilatation, evident as early as 2 weeks of age. […] This observed size difference generally becomes more pronounced over time. […] In addition, Fbn1C1039G mice show increased collagen deposition, which is an indirect marker of increased TGF-β signaling.
In order to determine the effects of angiotensin (1-7) peptides, here TXA127, on the normal course of disease development, both wild-type and Marfan mice were each separated into two groups once the mice reached 2 months of age. […]
The primary endpoint of this study was degree of aortic growth observed over the 60 day treatment period, as measured by in vivo echocardiography. […]

wild-type mice = assay: Aortic root growth in wild-type mice by in vivo echocardiography; conditions: 500 μg/kg/day subcutaneous daily for 60 days, compared to wild type mice treated with placebo, FIG. 1
Source text: as §1
In order to determine the effects of angiotensin (1-7) peptides, here TXA127, on the normal course of disease development, both wild-type and Marfan mice were each separated into two groups once the mice reached 2 months of age. In each of the wild-type mice and Marfan mice, the placebo control group received daily subcutaneous saline injections for 60 days, while the TXA127 group received daily subcutaneous injections of TXA127 at a dose of 500 μg/kg/day for 60 days.
The primary endpoint of this study was degree of aortic growth observed over the 60 day treatment period, as measured by in vivo echocardiography. A baseline echocardiogram was performed just prior to the beginning of the treatment period and then again just prior to sacrifice. After the 60 day treatment period, mice were sacrificed and tissue samples were taken for histological and other analysis.

Asp^1-Arg^2-Val^3-Tyr^4-Ile^5-His^6-Pro^7 (DRVYIHP) [TXA127]
degree of aortic root growth [1]: highly significant reduction; also recorded: essentially eliminated | aortic root growth (wild-type mice): no statistically significant effect

From patent publication US9107870B2, “Angiotensin peptides in treating marfan syndrome and related disorders” (TARIX PHARMACEUTICALS LTD, priority 2013, dated 2015)
